{"source": "patent US10617667B2", "about": "“Method for treating brain tumors” (ONO PHARMACEUTICAL CO., LTD., priority 2017, dated 2020)", "key": {"[1]": {"system": "mouse glioma cell line GL261 orthotopic-graft", "test": "Survival in mouse glioma cell line GL261 orthotopic-graft model", "format": "in vivo, immunocompetent syngeneic C57BL/6 mice", "conditions": "Compound A 3 mg/kg oral twice a day", "procedure": "Effects of Combination of Compound A and an Anti-Mouse PD-1 Antibody in Mouse Glioma Cell Line GL261 Orthotopic-Graft Models Using Immunocompetent Syngeneic C57BL/6 Mice\nThe effect of a combination of Compound A and an anti-mouse PD-1 antibody (4H2, see WO2006/121168) was evaluated in mouse glioma cell line GL261 orthotopic-graft models using immunocompetent syngeneic C57BL/6 mice. GL261 was cultured in a CO2 incubator using an RPMI medium (Mediatech, Inc.) containing 10 vol % of FBS, 100 units/mL of penicillin, and 100 μg/mL of streptomycin. On the day of transplant, GL261 was harvested after removing the culture supernatant, and washing the cells with PBS. The harvested GL261 cells were suspended in PBS to obtain transplant cells. The transplant cells (5×10^4) were then transplanted to the brain of female C57BL/6J mice (The Jackson Laboratory) under anesthesia.\nAfter 5 days from transplant, the mice were divided into 4 groups: a vehicle group, a Compound A single group, an anti-mouse PD-1 antibody single group, and a combination group (Compound A and the anti-mouse PD-1 antibody). Each group included 10 mice. […] The general condition of the mice was observed once a day from the day following the day of transplant of GL261, and scored according to the following table. Thus, the survival rate of the mice was evaluated."}, "EP4 receptor [2]": {"molecular_target": "T1, EP4 receptor (Homo sapiens, UniProt P35408)", "T1 sequence (P35408 whole entry)": "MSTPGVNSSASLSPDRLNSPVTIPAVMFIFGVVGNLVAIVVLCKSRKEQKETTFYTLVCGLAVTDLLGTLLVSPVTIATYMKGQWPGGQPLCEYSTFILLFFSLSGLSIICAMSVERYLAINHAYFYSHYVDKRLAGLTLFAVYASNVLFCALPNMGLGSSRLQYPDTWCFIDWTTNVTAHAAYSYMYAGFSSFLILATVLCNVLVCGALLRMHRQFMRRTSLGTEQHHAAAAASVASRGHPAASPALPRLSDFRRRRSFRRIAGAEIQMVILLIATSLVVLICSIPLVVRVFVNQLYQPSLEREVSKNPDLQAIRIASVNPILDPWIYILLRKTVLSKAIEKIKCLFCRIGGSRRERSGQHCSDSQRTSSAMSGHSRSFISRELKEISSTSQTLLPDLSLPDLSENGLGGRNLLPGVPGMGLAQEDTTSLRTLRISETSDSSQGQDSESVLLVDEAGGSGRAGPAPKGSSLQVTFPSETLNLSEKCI", "conditions": "as taught by Patent Document 1 (WO2016/111347); cited from earlier work"}, "EP4 receptor [3]": {"molecular_target": "T1, EP4 receptor", "conditions": "as taught by Patent Document 1 (WO2016/111347); cited from earlier work", "remark": "listed apart in the source"}}, "data": [{"smiles": "CC(C)NC(=O)c1ccc2c(c1)[C@]1(CCO2)C[C@H]1C(=O)Nc1cc(C#N)ccc1CCCC(=O)O", "note": "[Compound A, 4-[4-cyano-2-({[(2′R,4S)-6-(isopropylcarbamoyl)-2,3-dihydrospiro[chromene-4,1′-cyclopropan]-2′-yl]carbonyl}amino)phenyl]butanoic acid]", "values": [{"measurement": "survival time compared with vehicle administration group", "setting": "[1]; GL261 orthotopic graft", "result": "longer than that of the vehicle administration group"}, {"measurement": "day after which all the mice had died", "setting": "[1]; GL261 transplanted to brain of female C57BL/6J mice, days 5-70 from transplant, 10 mice per group", "result": 42, "unit": "days"}, {"measurement": "binding to EP4 receptor", "setting": "EP4 receptor [2]", "result": "strongly binds"}, {"measurement": "activity at EP4 receptor", "setting": "EP4 receptor [3]", "result": "antagonistic activity"}]}]}
